Experimental data from US10350213B2 (AI Therapeutics, Inc., priority 2015, dated 2019).

Experiments:
[1] = system: SUDHL-4 (Human Diffuse Large B Cell Lymphoma -GCB); test: CellTiterGlo cell viability assay; assay type: cell-based; details: Homo sapiens, 72 h; SU-DHL-4; three-day assay; read-out: IC50 (nM) SU-DHL-4
[2] = system: WSU-DLCL2 (Human Diffuse Large B Cell Lymphoma -GCB); test: CellTiterGlo cell viability assay; assay type: cell-based; details: Homo sapiens, WSUDLCL2, 72 h, three-day assay, read-out: IC50 (nM) WSU-DLCL2

SMILES	IC50 [1]	IC50 [2]
CC1(C)CCC(CN2CCN(c3ccc(C(=O)NS(=O)(=O)c4ccc(NCC5CCOCC5)c([N+](=O)[O-])c4)c(Oc4cnc5[nH]ccc5c4)c3)CC2)=C(c2ccc(Cl)cc2)C1 [ABT-199]	212 nM	3370 nM
O=C(/C=C\n1cnc(-c2cc(C(F)(F)F)cc(C(F)(F)F)c2)n1)NNc1cnccn1 [KPT-330]	93 nM	165 nM
C[C@H](Nc1ncnc2nc[nH]c12)c1cc2cccc(Cl)c2c(=O)n1-c1ccccc1 [duvelisib]	13 nM	863 nM
C=CC(=O)N1CCC[C@@H](n2nc(-c3ccc(Oc4ccccc4)cc3)c3c(N)ncnc32)C1 [ibrutinib]	718 nM	747 nM
CC[C@H](Nc1ncnc2[nH]cnc12)c1nc2cccc(F)c2c(=O)n1-c1ccccc1 [idelalisib]	2030 nM	6150 nM
